Measurements published in publication PMC6614837 (Nucleic Acids Research, 2019).

Molecular target: T1, P protein from T. maritima (Thermotoga maritima, UniProt Q9X1H4)
T1 construct: GST (cleaved yes); made in house; host or cells: E. coli BL21(DE3)pLysS
T1 sequence (Q9X1H4 1-117): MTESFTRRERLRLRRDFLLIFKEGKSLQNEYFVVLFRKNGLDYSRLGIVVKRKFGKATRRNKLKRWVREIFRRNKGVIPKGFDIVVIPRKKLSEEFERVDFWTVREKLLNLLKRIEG
Assay: Biolayer interferometry binding to immobilized His-tagged P protein
Conditions: BLI, P protein on Ni-NTA, 1:1 Langmuir model
Description: Immobilization of the His-tagged P protein from T. maritima at 0.05 mg/ml (3.4 μM) was performed on Ni-NTA biosensors. For the initial binding tests to the P protein, a compound concentration of 1 mM was used. Periods for each step of the assay were as follows: immobilization (400 s), wash (100 s), baseline establishment (100s), association (250 s), dissociation (250 s). For each titration curve, […] were used corresponding to the 125, 62.5, 31.25, 15.6 and 7.8 μM compound concentrations. Control biosensors were used to subtract non-specific binding of compounds to the biosensor surface. […] Kinetic binding parameters were calculated using Data Analysis 8.2 (ForteBio, Inc.). […]
Figure 5. […] Association and dissociation of the 5′ RNA leader to the P protein (TmP) is measured over time. […] P protein was immobilized on Ni-NTA biosensors after which its association and dissociation from indicated compounds were monitored. […] (C) Location of purpurin (green) on the T. maritima P protein as determined by X-ray crystallography (PDB code: 6MAX; see Supplementary Figure S19 and Supplementary Table S2). […]
Supplementary Figure 15. […] The pre-tRNA in buffer HAAMD (20 mM HEPES pH 7.4, 100 mM ammonium acetate, 10 mM MgCl2, 5% DMSO or 5% PEG 200) was measured against RNase P in concentrations ranging from 62.5 to 7.8 nM in a two-fold dilution series. […]

## O=C1c2ccccc2C(=O)c2c(O)c(O)cc(O)c21 [Purpurin, 1,2,4-trihydroxyanthraquinone]
  Kd: 6.8 µM
